Data on 15 molecules can be found in ChEMBL document CHEMBL1909046, “DrugMatrix in vitro pharmacology data”.

Test [1] can be described thus: DRUGMATRIX: GABAA, Flunitrazepam, Central radioligand binding (ligand: [3H] Flunitrazepam). It is filed as cell membranes, Rattus norvegicus, Wistar, Brain, Membrane. Particulars: Not Active = under 50% inhibition at 10 µM.
In test [2] the target is T1, Muscarinic acetylcholine receptor M2 (Homo sapiens, UniProt P08172). Also: in other assays of this panel Not Active means under 50% inhibition at 10 µM.
T1 sequence (P08172 whole entry): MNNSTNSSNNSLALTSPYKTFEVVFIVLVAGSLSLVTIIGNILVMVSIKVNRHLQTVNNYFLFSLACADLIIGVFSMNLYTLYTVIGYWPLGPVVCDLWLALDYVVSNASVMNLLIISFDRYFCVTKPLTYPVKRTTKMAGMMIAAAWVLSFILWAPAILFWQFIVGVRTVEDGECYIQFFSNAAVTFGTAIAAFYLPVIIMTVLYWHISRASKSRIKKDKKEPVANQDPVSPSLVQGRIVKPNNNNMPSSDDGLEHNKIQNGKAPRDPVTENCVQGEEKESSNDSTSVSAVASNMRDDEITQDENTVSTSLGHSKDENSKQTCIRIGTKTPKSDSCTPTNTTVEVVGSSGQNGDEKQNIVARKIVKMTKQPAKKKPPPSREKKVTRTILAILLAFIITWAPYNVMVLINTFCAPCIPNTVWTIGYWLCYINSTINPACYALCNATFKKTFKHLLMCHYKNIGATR
The test is classed as cell membranes, CHO-K1, Membrane. Conditions: cho-k1.

Test [3] concerns the target Glycine receptor (Rattus norvegicus, UniProt P22771+P24524+P07727+P20781). It is filed as cell membranes, Wistar, Spinal cord, Membrane. Also: in other assays of this panel Not Active means under 50% inhibition at 10 µM.
For test [4], the target named is T2, Cholecystokinin receptor type A (Homo sapiens, UniProt P32238). Also: in other assays of this panel Not Active means under 50% inhibition at 10 µM.
T2 sequence (P32238 whole entry): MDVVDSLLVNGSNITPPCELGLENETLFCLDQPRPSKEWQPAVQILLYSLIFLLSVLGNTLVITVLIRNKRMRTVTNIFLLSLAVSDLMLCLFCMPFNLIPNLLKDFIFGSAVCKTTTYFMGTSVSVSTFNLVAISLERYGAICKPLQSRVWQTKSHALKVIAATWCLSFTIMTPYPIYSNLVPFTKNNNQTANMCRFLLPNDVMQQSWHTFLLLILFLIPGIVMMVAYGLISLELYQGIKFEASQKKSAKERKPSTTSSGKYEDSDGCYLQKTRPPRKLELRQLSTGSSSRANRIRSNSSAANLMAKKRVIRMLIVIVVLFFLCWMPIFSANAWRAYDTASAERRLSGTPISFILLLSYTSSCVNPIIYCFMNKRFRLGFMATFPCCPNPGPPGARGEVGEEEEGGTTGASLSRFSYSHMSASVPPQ
It is filed as cell membranes, Membrane. Particulars: 1321-n1.

A short description of test [5]: DRUGMATRIX: Glutamate, NMDA, Agonism radioligand binding (ligand: [3H] CGP-39653). The test is classed as cell membranes, Rattus norvegicus, Wistar, Cerebral cortex, Membrane. Particulars: Not Active = under 50% inhibition at 10 µM.
Test [6] is described as follows: DRUGMATRIX: Sigma2 radioligand binding (ligand: [3H] Ifenprodil). It is filed as cell membranes, Rattus norvegicus, Wistar, Brain, Membrane. Particulars: Not Active = under 50% inhibition at 10 µM.
Test [7] in a line: DRUGMATRIX: ATPase, Na+/K+ enzyme inhibition (substrate: ATP). The test is classed as tissue-based, Sus scrofa, Heart. Particulars: Not Active = under 50% inhibition at 10 µM.

For `O=C(N[C@H](CO)[C@H](O)c1ccc([N+](=O)[O-])cc1)C(Cl)Cl` [CHLORAMPHENICOL], the IC50 entry in test [1], in test [2], in test [3], in test [4], in test [5] and in test [6] was “Not Active” each time. For the same molecule, the half-maximal inhibitory concentration (IC50) (as a rule, the concentration that gives 50% inhibition) in test [7] is given as “Not Active”. Besides, the Ki entry in test [1], in test [5], in test [6] and in test [7] was “Not Active” each time.
For `ClC(Cl)Cl` [CHLOROFORM], the IC50 result in test [1], in test [2], in test [3], in test [4], in test [5] and in test [6] was “Not Active” throughout. Besides, in test [7], the IC50 result is listed as “Not Active”. Besides, the Ki result in test [1], in test [5], in test [6] and in test [7] was “Not Active” in each case.
`C=C1CC[C@H](O)C/C1=C/C=C1\CCC[C@]2(C)[C@@H]([C@H](C)CCCC(C)C)CC[C@@H]12` [CHOLECALCIFEROL]: the IC50 entry in test [1], in test [2], in test [3], in test [4], in test [5] and in test [6] was “Not Active” in each case. In addition, in test [7], the IC50 entry is reported as “Not Active”. The Ki result in test [1], in test [5], in test [6] and in test [7] was “Not Active” each time.
Turning to `C[N+](C)(C)CCO.[Cl-]` [CHOLINE CHLORIDE], the IC50 result in test [1], in test [2], in test [3], in test [4], in test [5] and in test [6] was “Not Active” in each case. Moreover, the IC50 entry in test [7] is “Not Active”. In addition, the Ki result in test [1], in test [5], in test [6] and in test [7] was “Not Active” throughout.
On to `CCOC(=O)C(C)(C)Oc1ccc(Cl)cc1` [CLOFIBRATE], for which the IC50 entry in test [1], in test [2], in test [3], in test [4], in test [5] and in test [6] was “Not Active” in each case. Further, the IC50 entry in test [7] is listed as “Not Active”. Also, the Ki entry in test [1], in test [5], in test [6] and in test [7] was “Not Active” in each case.
In the case of `CC(=O)OCC(=O)[C@@]1(O)CC[C@H]2[C@@H]3CCC4=CC(=O)CC[C@]4(C)[C@H]3C(=O)C[C@@]21C` [CORTISONE ACETATE], the IC50 entry in test [1], in test [2], in test [3], in test [4], in test [5] and in test [6] was “Not Active” in each case. Also, in test [7], the IC50 entry is “Not Active”. The Ki result in test [1], in test [5], in test [6] and in test [7] was “Not Active” each time.
Regarding `O=c1ccc2ccccc2o1` [COUMARIN], the IC50 entry in test [1], in test [2], in test [3], in test [4], in test [5] and in test [6] was “Not Active” each time. The IC50 result in test [7] is listed as “Not Active”. Also, the Ki entry in test [1], in test [5], in test [6] and in test [7] was “Not Active” in each case.
As for `C[C@@H]1C[C@@H]([C@H](O)CC2CC(=O)NC(=O)C2)C(=O)[C@@H](C)C1` [CYCLOHEXIMIDE], the IC50 entry in test [1], in test [2], in test [3], in test [4], in test [5] and in test [6] was “Not Active” throughout. For the same molecule, the IC50 result in test [7] is listed as “Not Active”. For the same molecule, the Ki result in test [1], in test [5], in test [6] and in test [7] was “Not Active” throughout.
Consider `C/C=C/C[C@@H](C)[C@@H](O)[C@H]1C(=O)N[C@@H](CC)C(=O)N(C)CC(=O)N(C)[C@@H](CC(C)C)C(=O)N[C@@H](C(C)C)C(=O)N(C)[C@@H](CC(C)C)C(=O)N[C@@H](C)C(=O)N[C@H](C)C(=O)N(C)[C@@H](CC(C)C)C(=O)N(C)[C@@H](CC(C)C)C(=O)N(C)[C@@H](C(C)C)C(=O)N1C` [CYCLOSPORINE], for which the IC50 result in test [1], in test [2], in test [3], in test [4], in test [5] and in test [6] was “Not Active” each time. In addition, in test [7], the IC50 result is listed as “Not Active”. For the same molecule, the Ki entry in test [1], in test [5], in test [6] and in test [7] was “Not Active” in each case.
As to `CN(C)/N=N/c1[nH]cnc1C(N)=O` [DACARBAZINE], the IC50 entry in test [1], in test [2], in test [3], in test [4], in test [5] and in test [6] was “Not Active” throughout. In addition, the IC50 result in test [7] is “Not Active”. In addition, the Ki result in test [1], in test [5], in test [6] and in test [7] was “Not Active” in each case.
For `COc1ccc2c(c1)[C@]13CCCC[C@@H]1[C@H](C2)N(C)CC3` [DEXTROMETHORPHAN], the IC50 result in test [1], in test [2], in test [3], in test [4], in test [5] and in test [6] was “Not Active” each time. For the same molecule, the IC50 result in test [7] was “Not Active”. In addition, the Ki result in test [1], in test [5], in test [6] and in test [7] was “Not Active” throughout.
Turning to `CC(=O)Nc1c(I)c(NC(C)=O)c(I)c(C(=O)O)c1I` [DIATRIZOIC ACID], the IC50 result in test [1], in test [2], in test [3], in test [4], in test [5] and in test [6] was “Not Active” each time. Also, the IC50 result in test [7] was “Not Active”. For the same molecule, the Ki entry in test [1], in test [5], in test [6] and in test [7] was “Not Active” throughout.
`COP(=O)(OC)OC=C(Cl)Cl` [DICHLORVOS]: the IC50 result in test [1], in test [2], in test [3], in test [4], in test [5] and in test [6] was “Not Active” each time. For the same molecule, in test [7], the IC50 result is “Not Active”. In addition, the Ki result in test [1], in test [5], in test [6] and in test [7] was “Not Active” in each case.
Regarding `O=C(O)Cc1ccccc1Nc1c(Cl)cccc1Cl` [DICLOFENAC], the IC50 result in test [1], in test [2], in test [3], in test [4], in test [5] and in test [6] was “Not Active” in each case. In test [7], the IC50 entry was “Not Active”. For the same molecule, the Ki entry in test [1], in test [5], in test [6] and in test [7] was “Not Active” in each case.
Turning to `C[C@H]1O[C@@H](O[C@H]2[C@@H](O)C[C@H](O[C@H]3[C@@H](O)C[C@H](O[C@H]4CC[C@@]5(C)[C@H](CC[C@@H]6[C@@H]5CC[C@]5(C)[C@@H](C7=CC(=O)OC7)CC[C@]65O)C4)O[C@@H]3C)O[C@@H]2C)C[C@H](O)[C@@H]1O` [DIGITOXIN], the IC50 entry in test [1], in test [2], in test [3], in test [4], in test [5] and in test [6] was “Not Active” in each case. Also, in test [7] (read-out: IC50), the concentration for half-maximal inhibition (IC50) turned out to be 225 nM. In addition, the Ki result in test [1], in test [5] and in test [6] was “Not Active” each time.
